Laboratory results reported in US12281080B2, “Quinoline-based compounds and methods of inhibiting CDK8/19” (University of South Carolina, priority 2018, dated 2025).

Tests used:
Assay in all cases: KINOMEscan scanMAX
Format in all cases: binding
Conditions in all cases: 2000 nM; read-out: Percent Control
[1] = molecular target: ABL1(Q252H)-phosphorylated (Homo sapiens (Human), UniProt P00519, Q252H)
[2] = molecular target: ABL1(T315I)-phosphorylated (Homo sapiens (Human), UniProt P00519, T315I)
ACVRL1 = ACVRL1 (Homo sapiens (Human), UniProt P37023)
ASK1 (MAP3K5) = ASK1 (MAP3K5) (Homo sapiens (Human), UniProt Q99683)
AURKC = AURKC (Homo sapiens (Human), UniProt Q9UQB9)
BMPR2 = BMPR2 (Homo sapiens (Human), UniProt Q13873)
Sequence of BMPR2 (Q13873 27-1038): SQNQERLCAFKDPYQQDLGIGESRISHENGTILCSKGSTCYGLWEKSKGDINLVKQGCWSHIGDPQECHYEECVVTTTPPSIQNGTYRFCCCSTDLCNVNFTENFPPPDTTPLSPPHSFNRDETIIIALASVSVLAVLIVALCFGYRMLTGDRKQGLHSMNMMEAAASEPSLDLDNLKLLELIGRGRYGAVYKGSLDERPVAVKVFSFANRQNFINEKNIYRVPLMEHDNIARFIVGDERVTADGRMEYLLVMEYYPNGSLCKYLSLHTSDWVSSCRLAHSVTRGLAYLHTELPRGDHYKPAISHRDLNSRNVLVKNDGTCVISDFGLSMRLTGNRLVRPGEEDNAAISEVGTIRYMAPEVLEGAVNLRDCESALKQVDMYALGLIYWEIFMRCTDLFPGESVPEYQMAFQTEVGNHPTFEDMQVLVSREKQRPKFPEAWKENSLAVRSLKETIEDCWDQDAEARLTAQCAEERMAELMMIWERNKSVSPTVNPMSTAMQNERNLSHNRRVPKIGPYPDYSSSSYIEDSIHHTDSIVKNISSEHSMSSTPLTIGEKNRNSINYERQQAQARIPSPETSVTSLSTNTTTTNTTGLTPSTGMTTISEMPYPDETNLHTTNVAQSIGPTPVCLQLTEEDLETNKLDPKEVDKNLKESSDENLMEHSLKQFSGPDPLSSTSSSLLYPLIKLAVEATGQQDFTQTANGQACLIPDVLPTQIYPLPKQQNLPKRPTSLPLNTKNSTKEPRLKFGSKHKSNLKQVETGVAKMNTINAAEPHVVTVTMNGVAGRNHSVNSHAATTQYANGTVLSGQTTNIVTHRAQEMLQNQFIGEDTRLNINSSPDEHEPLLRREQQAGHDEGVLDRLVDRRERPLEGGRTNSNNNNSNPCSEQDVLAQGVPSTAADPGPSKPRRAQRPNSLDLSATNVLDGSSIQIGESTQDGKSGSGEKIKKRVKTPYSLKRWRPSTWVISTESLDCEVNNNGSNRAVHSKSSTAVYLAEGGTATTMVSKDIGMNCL

BRAF = BRAF (Homo sapiens (Human), UniProt P15056)
Sequence of BRAF (P15056 whole entry): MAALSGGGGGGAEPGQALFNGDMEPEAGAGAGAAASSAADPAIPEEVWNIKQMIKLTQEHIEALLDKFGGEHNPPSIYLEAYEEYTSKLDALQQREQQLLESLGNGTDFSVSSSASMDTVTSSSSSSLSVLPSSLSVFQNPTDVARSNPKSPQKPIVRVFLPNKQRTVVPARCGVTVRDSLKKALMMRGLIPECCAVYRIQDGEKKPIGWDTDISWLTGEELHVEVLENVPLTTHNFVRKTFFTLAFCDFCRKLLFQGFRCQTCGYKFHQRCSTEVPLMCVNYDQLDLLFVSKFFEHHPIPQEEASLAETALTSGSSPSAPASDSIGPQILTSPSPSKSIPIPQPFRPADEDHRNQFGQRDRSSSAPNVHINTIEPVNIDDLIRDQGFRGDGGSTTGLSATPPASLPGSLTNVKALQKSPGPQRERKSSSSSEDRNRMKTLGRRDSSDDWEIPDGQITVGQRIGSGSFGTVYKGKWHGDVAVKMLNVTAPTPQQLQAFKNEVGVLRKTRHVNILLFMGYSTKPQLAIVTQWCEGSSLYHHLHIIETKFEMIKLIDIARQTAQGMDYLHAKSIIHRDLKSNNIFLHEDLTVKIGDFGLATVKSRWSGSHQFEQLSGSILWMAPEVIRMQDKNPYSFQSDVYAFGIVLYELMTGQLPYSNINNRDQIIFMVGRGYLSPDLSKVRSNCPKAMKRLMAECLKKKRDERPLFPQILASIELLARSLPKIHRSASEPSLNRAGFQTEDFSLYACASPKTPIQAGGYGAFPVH

BRAF(V600E) = BRAF(V600E) (Homo sapiens (Human), UniProt P15056, V600E)
Sequence of BRAF(V600E) (P15056 whole entry V600E): as the sequence (P15056 whole entry) above, with V600E counted along it

BRSK2 = BRSK2 (Homo sapiens (Human), UniProt Q8IWQ3)
CDC2L5 (CDK13) = CDC2L5 (CDK13) (Homo sapiens (Human), UniProt Q14004)
CSNK1D = CSNK1D (Homo sapiens (Human), UniProt P48730)
CSNK1E = CSNK1E (Homo sapiens (Human), UniProt P49674)
CSNK2A2 = CSNK2A2 (Homo sapiens (Human), UniProt P19784)
Sequence of CSNK2A2 (P19784 whole entry): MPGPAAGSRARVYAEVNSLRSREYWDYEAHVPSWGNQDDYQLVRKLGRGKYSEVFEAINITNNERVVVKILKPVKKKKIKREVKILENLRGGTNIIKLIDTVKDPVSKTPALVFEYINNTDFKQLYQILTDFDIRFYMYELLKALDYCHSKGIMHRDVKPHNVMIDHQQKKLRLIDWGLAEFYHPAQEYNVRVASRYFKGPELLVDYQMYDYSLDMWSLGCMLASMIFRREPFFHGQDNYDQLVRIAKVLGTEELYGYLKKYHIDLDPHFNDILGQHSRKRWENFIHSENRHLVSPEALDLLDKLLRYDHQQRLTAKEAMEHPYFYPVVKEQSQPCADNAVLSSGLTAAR

CTK (MATK) = CTK (MATK) (Homo sapiens (Human), UniProt P42679)
DDR2 = DDR2 (Homo sapiens (Human), UniProt Q16832)
DYRK1B = DYRK1B (Homo sapiens (Human), UniProt Q9Y463)
EGFR(L861Q) = EGFR(L861Q) (Homo sapiens (Human), UniProt P00533, L861Q)
EPHA1 = EPHA1 (Homo sapiens (Human), UniProt P21709)
EPHA2 = EPHA2 (Homo sapiens (Human), UniProt P29317)
EPHB3 = EPHB3 (Homo sapiens (Human), UniProt P54753)
ERK3 (MAPK6) = ERK3 (MAPK6) (Homo sapiens (Human), UniProt Q16659)
Sequence of ERK3 (MAPK6) (Q16659 whole entry): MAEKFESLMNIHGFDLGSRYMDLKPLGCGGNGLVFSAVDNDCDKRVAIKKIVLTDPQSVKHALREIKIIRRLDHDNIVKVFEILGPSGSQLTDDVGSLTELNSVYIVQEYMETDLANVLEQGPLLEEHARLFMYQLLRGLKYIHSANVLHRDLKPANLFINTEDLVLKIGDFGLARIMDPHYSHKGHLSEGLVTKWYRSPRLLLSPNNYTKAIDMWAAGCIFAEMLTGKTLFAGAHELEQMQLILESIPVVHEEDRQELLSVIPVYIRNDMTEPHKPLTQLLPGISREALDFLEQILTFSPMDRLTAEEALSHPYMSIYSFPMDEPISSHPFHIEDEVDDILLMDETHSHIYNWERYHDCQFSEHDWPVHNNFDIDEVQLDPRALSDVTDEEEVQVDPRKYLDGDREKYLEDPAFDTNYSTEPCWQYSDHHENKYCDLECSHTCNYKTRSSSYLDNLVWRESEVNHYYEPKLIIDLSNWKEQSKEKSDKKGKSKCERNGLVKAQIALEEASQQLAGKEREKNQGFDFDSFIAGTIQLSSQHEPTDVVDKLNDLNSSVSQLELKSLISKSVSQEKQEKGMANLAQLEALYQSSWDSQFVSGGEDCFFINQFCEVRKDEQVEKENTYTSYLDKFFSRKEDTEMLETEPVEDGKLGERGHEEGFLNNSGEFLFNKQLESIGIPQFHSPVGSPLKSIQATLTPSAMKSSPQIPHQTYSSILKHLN

ERK4 (MAPK4) = ERK4 (MAPK4) (Homo sapiens (Human), UniProt P31152)
Sequence of ERK4 (MAPK4) (P31152 whole entry): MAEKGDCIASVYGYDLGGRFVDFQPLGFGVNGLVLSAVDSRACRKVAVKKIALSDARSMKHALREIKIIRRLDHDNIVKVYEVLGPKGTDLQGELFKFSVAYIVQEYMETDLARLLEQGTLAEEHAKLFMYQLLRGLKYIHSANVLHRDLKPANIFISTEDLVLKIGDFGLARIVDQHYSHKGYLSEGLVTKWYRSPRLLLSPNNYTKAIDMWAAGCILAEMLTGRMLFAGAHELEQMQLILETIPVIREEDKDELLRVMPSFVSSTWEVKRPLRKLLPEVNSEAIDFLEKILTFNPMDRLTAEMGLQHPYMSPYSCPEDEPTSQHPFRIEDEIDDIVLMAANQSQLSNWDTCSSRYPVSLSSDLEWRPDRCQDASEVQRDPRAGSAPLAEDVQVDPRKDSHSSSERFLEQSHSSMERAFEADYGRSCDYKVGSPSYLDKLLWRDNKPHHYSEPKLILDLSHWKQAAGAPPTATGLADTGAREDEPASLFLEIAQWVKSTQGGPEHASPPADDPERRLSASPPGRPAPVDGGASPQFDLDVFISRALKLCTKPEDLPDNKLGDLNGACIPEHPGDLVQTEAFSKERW

FLT3(D835H) = FLT3(D835H) (Homo sapiens (Human), UniProt P36888, D835H)
INSRR = INSRR (Homo sapiens (Human), UniProt P14616)
[3] = molecular target: JAK1(JH2domain-pseudokinase) (Homo sapiens (Human), UniProt P23458)
KIT(D816H) = KIT(D816H) (Homo sapiens (Human), UniProt P10721, D816H)
MST4 = MST4 (Homo sapiens (Human), UniProt Q9P289)
Sequence of MST4 (Q9P289 whole entry): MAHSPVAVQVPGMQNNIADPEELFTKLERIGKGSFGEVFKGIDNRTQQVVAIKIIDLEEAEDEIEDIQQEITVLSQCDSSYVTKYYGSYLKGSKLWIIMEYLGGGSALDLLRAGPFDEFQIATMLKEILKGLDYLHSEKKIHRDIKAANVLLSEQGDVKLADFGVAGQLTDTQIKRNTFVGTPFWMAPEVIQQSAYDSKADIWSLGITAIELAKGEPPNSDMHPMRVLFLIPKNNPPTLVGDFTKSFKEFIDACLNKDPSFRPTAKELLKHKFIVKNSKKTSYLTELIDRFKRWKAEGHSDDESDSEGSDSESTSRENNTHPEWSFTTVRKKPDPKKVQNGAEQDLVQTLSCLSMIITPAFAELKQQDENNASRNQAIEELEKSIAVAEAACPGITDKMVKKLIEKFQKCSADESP

PDGFRB = PDGFRB (Homo sapiens (Human), UniProt P09619)
Sequence of PDGFRB (P09619 33-1106): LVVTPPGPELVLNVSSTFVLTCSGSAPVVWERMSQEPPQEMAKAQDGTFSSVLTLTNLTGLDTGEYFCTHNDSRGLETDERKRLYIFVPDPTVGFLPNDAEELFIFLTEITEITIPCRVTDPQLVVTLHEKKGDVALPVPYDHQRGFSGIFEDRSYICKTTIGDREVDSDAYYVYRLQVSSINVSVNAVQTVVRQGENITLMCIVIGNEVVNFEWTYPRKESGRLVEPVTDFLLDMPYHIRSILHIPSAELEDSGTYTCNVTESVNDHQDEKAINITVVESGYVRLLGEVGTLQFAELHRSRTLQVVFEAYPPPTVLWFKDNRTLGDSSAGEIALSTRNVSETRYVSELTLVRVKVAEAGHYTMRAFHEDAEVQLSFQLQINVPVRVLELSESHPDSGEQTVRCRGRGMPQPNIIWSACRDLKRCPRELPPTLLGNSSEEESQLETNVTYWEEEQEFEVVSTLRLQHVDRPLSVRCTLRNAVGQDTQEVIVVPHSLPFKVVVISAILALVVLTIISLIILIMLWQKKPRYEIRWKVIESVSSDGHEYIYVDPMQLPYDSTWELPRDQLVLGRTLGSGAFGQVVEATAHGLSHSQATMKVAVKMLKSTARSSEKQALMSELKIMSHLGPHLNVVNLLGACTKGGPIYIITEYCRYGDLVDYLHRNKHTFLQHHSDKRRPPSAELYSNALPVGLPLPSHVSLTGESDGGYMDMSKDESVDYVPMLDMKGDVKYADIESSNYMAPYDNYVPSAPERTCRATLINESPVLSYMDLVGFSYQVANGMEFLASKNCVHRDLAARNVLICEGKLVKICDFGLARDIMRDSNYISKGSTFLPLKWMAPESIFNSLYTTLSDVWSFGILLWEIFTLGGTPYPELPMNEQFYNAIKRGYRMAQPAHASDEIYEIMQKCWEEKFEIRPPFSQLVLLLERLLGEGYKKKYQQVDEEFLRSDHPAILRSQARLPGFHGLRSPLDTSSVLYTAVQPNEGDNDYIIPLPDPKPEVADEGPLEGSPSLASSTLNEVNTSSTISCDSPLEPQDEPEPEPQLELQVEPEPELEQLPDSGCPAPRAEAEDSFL

PIK3CA = PIK3CA (Homo sapiens (Human), UniProt P42336)
PIK3CD = PIK3CD (Homo sapiens (Human), UniProt O00329)
PIM1 = PIM1 (Homo sapiens (Human), UniProt P11309)
PRKR (EIF2AK2) = PRKR (EIF2AK2) (Homo sapiens (Human), UniProt P19525)
RET(V804M) = RET(V804M) (Homo sapiens (Human), UniProt P07949, V804M)
RIPK5 (DSTYK) = RIPK5 (DSTYK) (Homo sapiens (Human), UniProt Q6XUX3)
SBK1 = SBK1 (Homo sapiens (Human), UniProt Q52WX2)
SGK3 = SGK3 (Homo sapiens (Human), UniProt Q96BR1)
SIK2 = SIK2 (Homo sapiens (Human), UniProt Q9H0K1)
SRMS = SRMS (Homo sapiens (Human), UniProt Q9H3Y6)
TTK = TTK (Homo sapiens (Human), UniProt P33981)
[4] = molecular target: TYK2(JH2domain-pseudokinase) (Homo sapiens (Human), UniProt P29597)

CN1CCN(C(=O)c2ccc3cc(CCNc4ccnc5ccc(C#N)cc45)ccc3c2)CC1 [compound 6148, 4-((2-(6-(4-methylpiperazine-1-carbonyl)naphthalen-2-yl)ethyl)amino)quinoline-6-carbonitrile]
remaining binding at 2 µM [1]: 89% | remaining binding at 2 µM [2]: 76% | remaining binding at 2 µM (ACVRL1): 93% | remaining binding at 2 µM (ASK1 (MAP3K5)): 91% | remaining binding at 2 µM (AURKC): 100% | remaining binding at 2 µM (BMPR2): 66% | remaining binding at 2 µM (BRAF): 84% | remaining binding at 2 µM (BRAF(V600E)): 89% | remaining binding at 2 µM (BRSK2): 96% | remaining binding at 2 µM (CDC2L5 (CDK13)): 64% | remaining binding at 2 µM (CSNK1D): 87% | remaining binding at 2 µM (CSNK1E): 81% | remaining binding at 2 µM (CSNK2A2): 64% | remaining binding at 2 µM (CTK (MATK)): 56% | remaining binding at 2 µM (DDR2): 64% | remaining binding at 2 µM (DYRK1B): 83% | remaining binding at 2 µM (EGFR(L861Q)): 64% | remaining binding at 2 µM (EPHA1): 93% | remaining binding at 2 µM (EPHA2): 100% | remaining binding at 2 µM (EPHB3): 81% | remaining binding at 2 µM (ERK3 (MAPK6)): 89% | remaining binding at 2 µM (ERK4 (MAPK4)): 87% | remaining binding at 2 µM (FLT3(D835H)): 88% | remaining binding at 2 µM (INSRR): 88% | remaining binding at 2 µM [3]: 58% | remaining binding at 2 µM (KIT(D816H)): 57% | remaining binding at 2 µM (MST4): 68% | remaining binding at 2 µM (PDGFRB): 94% | remaining binding at 2 µM (PIK3CA): 90% | remaining binding at 2 µM (PIK3CD): 61% | remaining binding at 2 µM (PIM1): 62% | remaining binding at 2 µM (PRKR (EIF2AK2)): 88% | remaining binding at 2 µM (RET(V804M)): 91% | remaining binding at 2 µM (RIPK5 (DSTYK)): 69% | remaining binding at 2 µM (SBK1): 57% | remaining binding at 2 µM (SGK3): 75% | remaining binding at 2 µM (SIK2): 100% | remaining binding at 2 µM (SRMS): 75% | remaining binding at 2 µM (TTK): 72% | remaining binding at 2 µM [4]: 63%
